{
  "source": "patent US6589747B2",
  "about": "“Method for identifying compounds that modulate the interaction of amyloid beta or its aggregates with a voltage gated sodium channel” (priority 1999, dated 2003)",
  "key": {"[1]": {"system": "calcium ion channel of isolated hippocampal neurons", "test": "Voltage-clamp recording of neuronal inward calcium current", "format": "cell-based, rat", "conditions": "50 μM amyloid β 1-40, about 70 minutes shake-induced aggregation", "excerpt": "(§1) For all studies as described herein, single neurons freshly dissociated from adult rats (Chad et al, In, Cellular Neurobiology, Ed. J. Chad and H. Wheal, Oxford University Press (1991)) were examined using the suction pipette method (Lee et al., J. Neurosc. Methods, 2; 51-78 (1980)) under current- or voltage-clamp, with use of an Axopatch 200 Amplifier (Axon Instruments, Foster City, Calif.). Amyloid β1-40 was obtained from Polypeptide Laboratories, Torrance, Calif., or from Bachem Biochemica, Heidelberg, Germany.\nIn this experiment, the effect of amyloid β 1-40 on the calcium ion channel was studied using the methods described in Experiment 2 for the sodium channel."}, "[2]": {"system": "isolated adult rat cortical and hippocampal neurons", "test": "Current-clamp recording of resting membrane potential and action potentials of single neurons (suction pipette)", "format": "cell-based", "excerpt": "as §1\nShaken aggregation assays (i.e., as in Examples 1-4) were performed as described previously (e.g., Findeis et al., Biochemistry, 38, 6791-6800 (1999)). This aggregation performed prior to use of the aggregated amyloid for contacting cells was done in the same media as the cells were contained, i.e., Hank's Balanced Salt Solution. Aggregation of amyloid for kinetic studies (i.e., as in Example 5), was done in a buffer composed of 10 mM phosphate, 100 mM NaCl, pH 7.4. […] At given times, the turbidities of the reaction mixture were read by measuring light scattering at 405 nm in a Molecular Devices (Menlo Park, Calif.) Vmax Microplate Reader. […]\nIn current-clamp, the resting membrane potential and action potentials of single neurons were continuously monitored for at least 10-20 minutes until the neuronal activity became stable. […]"}, "[3]": {"system": "potassium ion channel of isolated neurons", "test": "Voltage-clamp recording of potassium currents", "format": "cell-based, rat", "excerpt": "as §1\nIn this experiment, the effect of amyloid β 1-40 on the potassium ion channel was studied using the methods described in Experiment 2 for the sodium channel.\nIn voltage-clamp, within the first 2-5 minutes, in some cells the peptide induced an outward holding current measuring about 10-50 pA, but this small current was enough to hyperpolarize the resting membrane potential from −50 mV to −90 mV. In other cells, the peptide instead caused a gradual depolarization to about −40 mV due to a slight inhibition of the outward holding current. In all cells, amyloid β 1-40 blocked the delayed outward potassium current by about 30-40% at all step potentials."}, "[4]": {"system": "fast inward sodium channels (TTX-sensitive) of rat hippocampal neurons", "test": "Aggregation time course versus impact on inward sodium current and other neuronal parameters", "format": "cell-based"}, "[5]": {"system": "fast inward sodium channel (TTX-sensitive) of isolated rat hippocampal neurons", "test": "Voltage-clamp recording of fast inward sodium current (INa)", "format": "cell-based"}},
  "data": [
    {"compound": "amyloid β 1-40", "values": [
      {"measurement": "effect on neuronal inward calcium currents", "setting": "[1]", "result": "depress neuronal inward calcium currents"},
      {"measurement": "effect on action potentials", "setting": "[2]; 11.5 μM amyloid β 1-40 added to cortical and hippocampal neurons", "result": "abrogation of action potentials"},
      {"measurement": "time of peptide exposure until action potentials disappeared altogether in most neurons", "setting": "[2]; 10-50 μM amyloid β 1-40 preaggregated for different times", "result": "20 to 30", "unit": "min"},
      {"measurement": "block of delayed outward potassium current", "setting": "[3]; all cells, at all step potentials", "result": "30-40%"},
      {"measurement": "resting membrane potential after hyperpolarization (from −50 mV)", "setting": "[3]; cells in which an outward holding current was induced", "result": "−90", "unit": "mV"},
      {"measurement": "membrane potential after gradual depolarization", "setting": "[3]; other cells, slight inhibition of the outward holding current", "result": "about −40 mV"},
      {"measurement": "induced outward holding current", "setting": "[3]; voltage-clamp, within the first 2-5 minutes, in some cells", "result": "10-50 pA"},
      {"measurement": "time of shake-induced aggregation giving peak impact on sodium channel activity (% decrease in INa)", "setting": "[4]; 50 μM amyloid β 1-40", "result": "60 to 80", "unit": "min"},
      {"measurement": "inhibition level of the fast inward sodium channels after saturation of peptide aggregation", "setting": "[4]; after reaching saturation of aggregation, mean values of four experiments", "result": "> 50", "unit": "%"},
      {"measurement": "reversibility of effect on fast inward sodium current on wash out", "setting": "[5]; 50 μM amyloid β 1-40, about 90 and 120 minutes shake-induced aggregation, hippocampal neuron", "result": "cannot wash out"},
      {"measurement": "block of fast inward sodium current", "setting": "[5]; 10-50 μM amyloid β 1-40 aggregated for various times, in about 5-30 minutes, holding potential −50 to −80 mV", "result": "≤ 90", "unit": "%"}
    ]},
    {"compound": "NC1=N[C@H](O)[C@H]2[C@H]3O[C@]4(O)O[C@@H]([C@@H](O)[C@@]2(N1)[C@@H]4O)[C@]3(O)CO", "note": "[tetrodotoxin (TTX), tetrodotoxin]", "values": [
      {"measurement": "sensitivity of fast inward sodium current to blocker", "setting": "[5]", "result": "sensitive"}
    ]},
    {"compound": "low molecular weight peptide aggregates of amyloid β 1-40 monomer: Low molecular weight aggregates (e.g. tetramer) of amyloid β 1-40", "values": [
      {"measurement": "relative potency for inhibiting the fast inward sodium channels", "setting": "[4]; compared with monomers or polymers", "result": "higher potency"}
    ]},
    {"compound": "Monomers of amyloid β 1-40: Non-aggregated monomeric form of amyloid β 1-40", "values": [
      {"measurement": "impact on the parameters assessed (resting potential, action potential, sodium, calcium, potassium channels)", "setting": "[4]; monomeric form, before aggregation", "result": "did not show significant impact"}
    ]}
  ]
}
